Measurements reported in article PMC11106072, “CDK9 inhibition as an effective therapy for small cell lung cancer” (Cell Death & Disease, 2024).

Biological target: T1, CDK9 (Homo sapiens, UniProt P50750)
T1 construct: with CyclinT1
Assay: IMAP fluorescence polarisation kinase assay with CDK9/CyclinT1 (TAMRA-Rbtide, […] ATP); radiometric selectivity panel of […] CDK/cyclin pairs
Format: biochemical

T1 sequence (P50750 whole entry): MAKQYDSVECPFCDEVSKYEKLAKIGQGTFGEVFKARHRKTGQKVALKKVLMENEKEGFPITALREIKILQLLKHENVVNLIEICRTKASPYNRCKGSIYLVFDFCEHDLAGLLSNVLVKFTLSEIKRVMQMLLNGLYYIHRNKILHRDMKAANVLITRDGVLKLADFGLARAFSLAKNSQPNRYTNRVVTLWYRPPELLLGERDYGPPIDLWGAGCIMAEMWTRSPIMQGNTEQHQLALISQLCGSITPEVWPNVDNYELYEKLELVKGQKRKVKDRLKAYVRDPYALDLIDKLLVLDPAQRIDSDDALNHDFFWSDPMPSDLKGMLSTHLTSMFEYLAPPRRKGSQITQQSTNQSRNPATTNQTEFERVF
T1 sequence (O60563 whole entry partner): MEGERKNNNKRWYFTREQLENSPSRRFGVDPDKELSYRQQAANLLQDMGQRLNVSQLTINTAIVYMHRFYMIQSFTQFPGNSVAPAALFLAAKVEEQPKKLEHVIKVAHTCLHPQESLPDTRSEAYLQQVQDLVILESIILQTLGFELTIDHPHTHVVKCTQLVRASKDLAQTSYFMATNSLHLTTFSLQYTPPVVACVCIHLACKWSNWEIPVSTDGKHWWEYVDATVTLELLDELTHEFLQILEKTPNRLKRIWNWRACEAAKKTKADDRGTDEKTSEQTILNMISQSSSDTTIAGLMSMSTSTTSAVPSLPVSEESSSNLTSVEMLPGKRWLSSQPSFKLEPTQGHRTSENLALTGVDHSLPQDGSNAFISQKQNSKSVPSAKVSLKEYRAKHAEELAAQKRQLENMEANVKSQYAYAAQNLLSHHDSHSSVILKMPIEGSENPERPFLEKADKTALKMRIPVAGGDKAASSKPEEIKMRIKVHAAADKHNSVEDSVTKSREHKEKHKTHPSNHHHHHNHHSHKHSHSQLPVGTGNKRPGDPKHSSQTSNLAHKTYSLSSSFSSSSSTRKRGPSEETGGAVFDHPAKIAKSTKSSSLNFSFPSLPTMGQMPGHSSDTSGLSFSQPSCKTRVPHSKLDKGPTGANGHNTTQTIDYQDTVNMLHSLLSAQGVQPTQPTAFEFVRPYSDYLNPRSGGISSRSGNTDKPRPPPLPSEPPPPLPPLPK

IC50: 7 nM
SMILES: COc1ccccc1-c1ncnc(Nc2cccc(Cn3cnc4ccccc43)c2)n1 [VC-1, VCC972839:01]
